Reference: publication PMC7156458, “Synthetic biology based construction of biological activity-related library of fungal decalin-containing diterpenoid pyrones” (Nature Communications, 2020)
Where “and” joins values, the source holds several entries; their conditions need not be identical. Identical values can stand only once. Like-named read-outs stand apart in the source and are kept apart here.

Legend:
[1] = cytotoxicity in Drosophila DL1 cells; format: cell-based; details: Drosophila, DL1 cells (embryonic macrophage-derived), DL1 cells
Experimental: (§1) We screened the DDPs on the Drosophila assay system for cytotoxicity, inhibitory activity of innate immune signalling and insecticidal activity. The cytotoxicity of the DDPs was evaluated using two cell lines, embryonic macrophage-derived DL1 cells[58]–[60] and larval blood cell-derived l(2)mbn cells, and their IC50 values are listed in Supplementary Table 23.

DL1 cells = assay: cytotoxicity in Drosophila DL1 cells; format: cell-based; details: DL1 cells; for IC50: Drosophila melanogaster, cytotoxicity
Experimental: as §1

l(2)mbn cells = assay: cytotoxicity in Drosophila l(2)mbn cells; format: cell-based; details: for Luminescence Raw1: replicate 1; for Luminescence Raw2: replicate 2; for IC50: Drosophila melanogaster, cytotoxicity
Experimental: as §1

[2] = cytotoxicity in Drosophila l(2)mbn cells; format: cell-based; details: Drosophila, l(2)mbn cells (larval blood cell-derived)
Experimental: as §1

MAGI cells = assay: cytotoxicity in the anti-HIV assay (CC50); format: cell-based; details: for Cytotoxicity: single determinations
MCF-7 cells = assay: cell cytotoxic effects against MCF-7 cells (72 h), A490; format: cell-based, human; details: for viability at 0.1 µM / viability at 1 µM / viability at 10 µM: Homo sapiens, MCF7, 72 h, read-out: A490 (control =1) ave; for viability at 0.1 µM / viability at 1 µM / viability at 10 µM / A490 ave: MCF-7, 72 h
SF-539 = assay: cells; design: species or system JFCR39 human cancer cell lines; JFCR39 panel growth inhibition, sulforhodamine B total protein after 48 h; details: Homo sapiens, SF-539, 48 h
Outline: (§2)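 GI50 values derive from sulforhodamine B measurement of total cellular protein after 48 hours of treatment, run in duplicate. Cells of the 39-line JFCR39 panel grew in RPMI-1640 containing 5% fetal bovine serum at 37°C under 5% CO2.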

SNB-75 = assay: cells; design: species or system JFCR39 human cancer cell lines; JFCR39 panel growth inhibition, sulforhodamine B total protein after 48 h; details: Homo sapiens, SNB-75, 48 h
Outline: as §2

SK-OV-3 = assay: cells; design: species or system JFCR39 human cancer cell lines; JFCR39 panel growth inhibition, sulforhodamine B total protein after 48 h; details: Homo sapiens, SK-OV-3, 48 h
Outline: as §2

[3] = replicate 1, relative to DMSO 1%, read-out: % viability, viability 1
[4] = replicate 2, relative to DMSO 1%, read-out: % viability, viability 2
[5] = average of two replicates, read-out: IC50 Average
[6] = replicate 1, read-out: IC50 (1)
[7] = replicate 2, read-out: IC50 (2)
[8] = 0.1 µM (DMSO 0.002%), control 1.064
[9] = 1 µM (DMSO 0.02%), control 1.104
[10] = 10 µM (DMSO 0.2%), control 1.049

C=C1CCC2C(C)(CC(=O)C=C(C)C)C(O)CCC2(C)C1Cc1c(OC)oc(CO)c(C)c1=O (centres unmarked) [Compound 19]
viability at 0.04 µM [1, 3]: 92.6%
viability at 0.04 µM [1, 4]: 93.4%
viability at 0.2 µM [1, 3]: 78.6%
viability at 0.2 µM [1, 4]: 86.7%
viability at 1 µM [1, 3]: 92.1%
viability at 1 µM [1, 4]: 87%
viability at 4 µM [1, 3]: 86.9%
viability at 4 µM [1, 4]: 80.7%
viability at 10 µM [1, 3]: 52.8%
viability at 10 µM [1, 4]: 59.6%
viability at 20 µM [1, 3]: 15.3%
viability at 20 µM [1, 4]: 22.3%
Luminescence Raw1 (DL1 cells; 0.04 µM, replicate 1): 1907594
Luminescence Raw2 (DL1 cells; 0.04 µM, replicate 2): 1924545
Luminescence Raw1 (DL1 cells; 0.2 µM, replicate 1): 1618356
Luminescence Raw2 (DL1 cells; 0.2 µM, replicate 2): 1786055
Luminescence Raw1 (DL1 cells; 1 µM, replicate 1): 1896774
Luminescence Raw2 (DL1 cells; 1 µM, replicate 2): 1792907
Luminescence Raw1 (DL1 cells; 4 µM, replicate 1): 1789301
Luminescence Raw2 (DL1 cells; 4 µM, replicate 2): 1663075
Luminescence Raw1 (DL1 cells; 10 µM, replicate 1): 1087156
Luminescence Raw2 (DL1 cells; 10 µM, replicate 2): 1227796
Luminescence Raw1 (DL1 cells; 20 µM, replicate 1): 315492
Luminescence Raw2 (DL1 cells; 20 µM, replicate 2): 459001
IC50 (DL1 cells; [5]): 10.6 µM
IC50 (DL1 cells; average±SEM, read-out: IC50): 10.6 ± 0.23 µM
IC50 (DL1 cells; [6]): 10.3 µM
IC50 (DL1 cells; [7]): 10.8 µM
Luminescence Raw1 (l(2)mbn cells; 0.04 µM): 3944169
Luminescence Raw2 (l(2)mbn cells; 0.04 µM): 2684872
Luminescence Raw1 (l(2)mbn cells; 0.2 µM): 3351106
Luminescence Raw2 (l(2)mbn cells; 0.2 µM): 3081647
Luminescence Raw1 (l(2)mbn cells; 1 µM): 3286175
Luminescence Raw2 (l(2)mbn cells; 1 µM): 3371307
Luminescence Raw1 (l(2)mbn cells; 4 µM): 3215834
Luminescence Raw2 (l(2)mbn cells; 4 µM): 2985337
Luminescence Raw1 (l(2)mbn cells; 10 µM): 2665756
Luminescence Raw2 (l(2)mbn cells; 10 µM): 3480969
Luminescence Raw1 (l(2)mbn cells; 20 µM): 2956119
Luminescence Raw2 (l(2)mbn cells; 20 µM): 3004455
IC50 (l(2)mbn cells; average±SEM, read-out: IC50): > 20 µM
viability at 0.04 µM [2, 3]: 154%
viability at 0.04 µM [2, 4]: 105%
viability at 0.2 µM [2, 3]: 131%
viability at 0.2 µM [2, 4]: 120%
viability at 1 µM [2, 3]: 128%
viability at 1 µM [2, 4]: 131%
viability at 4 µM [2, 3]: 125%
viability at 4 µM [2, 4]: 116%
viability at 10 µM [2, 3]: 104%
viability at 10 µM [2, 4]: 136%
viability at 20 µM [2, 3]: 115%
viability at 20 µM [2, 4]: 117%
Cytotoxicity Avg. (MAGI cells; average of numeric determinations): 6.013 µM
Cytotoxicity (MAGI cells): 6.158 µM and 7.239 µM and 4.642 µM
viability at 0.1 µM (MCF-7 cells; 0.1 µM (DMSO 0.002%)): 65%
viability at 1 µM (MCF-7 cells; 1 µM (DMSO 0.02%)): 110%
viability at 10 µM (MCF-7 cells; 10 µM (DMSO 0.2%)): 104%
A490 ave (MCF-7 cells; [8]): 0.691
A490 ave (MCF-7 cells; [9]): 1.209
A490 ave (MCF-7 cells; [10]): 1.093
GI50 (SF-539): 65.8 µM
GI50 (SNB-75): 53.8 µM
GI50 (SK-OV-3): 83.2 µM

C=C1CC[C@H]2[C@]3(C)C[C@@H](C=C(C)C)O[C@H]3CC[C@]2(C)[C@@H]1Cc1c(OC)oc(CO)c(C)c1=O [Compound 17]
viability at 0.04 µM [1, 3]: 195%
viability at 0.04 µM [1, 4]: 207%
viability at 0.2 µM [1, 3]: 174%
viability at 0.2 µM [1, 4]: 181%
viability at 1 µM [1, 3]: 94.2%
viability at 1 µM [1, 4]: 35.7%
viability at 4 µM [1, 3]: 19.3%
viability at 4 µM [1, 4]: 20.1%
viability at 10 µM [1, 3]: 18.3%
viability at 10 µM [1, 4]: 18.8%
viability at 20 µM [1, 3]: 15.2%
viability at 20 µM [1, 4]: 19.6%
Luminescence Raw1 (DL1 cells; 0.04 µM, replicate 1): 2678864
Luminescence Raw2 (DL1 cells; 0.04 µM, replicate 2): 2844064
Luminescence Raw1 (DL1 cells; 0.2 µM, replicate 1): 2387791
Luminescence Raw2 (DL1 cells; 0.2 µM, replicate 2): 2484453
Luminescence Raw1 (DL1 cells; 1 µM, replicate 1): 1292136
Luminescence Raw2 (DL1 cells; 1 µM, replicate 2): 490161
Luminescence Raw1 (DL1 cells; 4 µM, replicate 1): 264802
Luminescence Raw2 (DL1 cells; 4 µM, replicate 2): 275258
Luminescence Raw1 (DL1 cells; 10 µM, replicate 1): 251461
Luminescence Raw2 (DL1 cells; 10 µM, replicate 2): 258312
Luminescence Raw1 (DL1 cells; 20 µM, replicate 1): 208914
Luminescence Raw2 (DL1 cells; 20 µM, replicate 2): 269129
IC50 (DL1 cells; [5]): 2.78 µM
IC50 (DL1 cells; average±SEM, read-out: IC50): 2.78 ± 0.68 µM
IC50 (DL1 cells; [6]): 3.46 µM
IC50 (DL1 cells; [7]): 2.1 µM
Luminescence Raw1 (l(2)mbn cells; 0.04 µM): 2242516
Luminescence Raw2 (l(2)mbn cells; 0.04 µM): 5241058
Luminescence Raw1 (l(2)mbn cells; 0.2 µM): 3856705
Luminescence Raw2 (l(2)mbn cells; 0.2 µM): 5991979
Luminescence Raw1 (l(2)mbn cells; 1 µM): 4822512
Luminescence Raw2 (l(2)mbn cells; 1 µM): 6091579
Luminescence Raw1 (l(2)mbn cells; 4 µM): 1969854
Luminescence Raw2 (l(2)mbn cells; 4 µM): 1392467
Luminescence Raw1 (l(2)mbn cells; 10 µM): 122097
Luminescence Raw2 (l(2)mbn cells; 10 µM): 121376
Luminescence Raw1 (l(2)mbn cells; 20 µM): 118130
Luminescence Raw2 (l(2)mbn cells; 20 µM): 243967
IC50 (l(2)mbn cells; [5]): 1.78 µM
IC50 (l(2)mbn cells; average±SEM, read-out: IC50): 1.78 ± 0.43 µM
IC50 (l(2)mbn cells; [6]): 1.35 µM
IC50 (l(2)mbn cells; [7]): 2.22 µM
viability at 0.04 µM [2, 3]: 35.7%
viability at 0.04 µM [2, 4]: 83.5%
viability at 0.2 µM [2, 3]: 61.4%
viability at 0.2 µM [2, 4]: 95.4%
viability at 1 µM [2, 3]: 76.8%
viability at 1 µM [2, 4]: 97%
viability at 4 µM [2, 3]: 31.4%
viability at 4 µM [2, 4]: 22.2%
viability at 10 µM [2, 3]: 1.94%
viability at 10 µM [2, 4]: 1.93%
viability at 20 µM [2, 3]: 1.88%
viability at 20 µM [2, 4]: 3.89%
Cytotoxicity (MAGI cells): >10 µM
cytotoxicity against the bulk of MCF-7 cells (MCF-7 cells): dose-dependent cytotoxicity
viability at 0.1 µM (MCF-7 cells; 0.1 µM (DMSO 0.002%)): 84.7%
viability at 1 µM (MCF-7 cells; 1 µM (DMSO 0.02%)): 48.1%
viability at 10 µM (MCF-7 cells; 10 µM (DMSO 0.2%)): 29.4%
A490 ave (MCF-7 cells; [8]): 0.901
A490 ave (MCF-7 cells; [9]): 0.531
A490 ave (MCF-7 cells; [10]): 0.309
GI50 (SF-539): 12.2 µM
GI50 (SNB-75): 16.9 µM
GI50 (SK-OV-3): 12.1 µM
